US7880007B2, “Bicyclic substituted phenyl piperidine modulators of muscarinic receptors” (Vertex Pharmaceuticals Incorporated, priority 2004, dated 2011)

What was measured:
Type in all cases: cell-based
[1] = molecular target: T1, M2 muscarinic receptor (Homo sapiens, UniProt P08172); test: Functional mobilization of intracellular calcium (FLIPR), M2-CHO cells; conditions: for M2 Activity: M2-CHO cells, calcium mobilization (FLIPR)
T1 construct: expressed in transfected cells; host or cells: CHO (M2-CHO)
T1 sequence (P08172 1-466): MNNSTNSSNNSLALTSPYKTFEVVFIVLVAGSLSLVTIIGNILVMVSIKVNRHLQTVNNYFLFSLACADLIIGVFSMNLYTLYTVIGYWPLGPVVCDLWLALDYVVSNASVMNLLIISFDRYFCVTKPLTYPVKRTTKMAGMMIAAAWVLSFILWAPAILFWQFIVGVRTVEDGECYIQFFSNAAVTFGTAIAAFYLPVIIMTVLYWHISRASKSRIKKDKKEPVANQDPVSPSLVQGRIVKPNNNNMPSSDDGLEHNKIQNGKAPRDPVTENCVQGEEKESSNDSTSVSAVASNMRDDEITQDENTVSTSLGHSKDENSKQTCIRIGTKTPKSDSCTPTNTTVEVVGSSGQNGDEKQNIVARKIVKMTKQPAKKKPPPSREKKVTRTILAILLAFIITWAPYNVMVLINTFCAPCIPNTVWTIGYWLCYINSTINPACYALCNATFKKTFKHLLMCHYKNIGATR
How it was run: (§1)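 FLIPR fluorescence (ex 488, em 540 nm) recorded 60 sec after compound addition to dye-loaded CHO cells. Agonist mode: compound alone. Antagonist mode: 15 min compound pre-incubation, then carbachol at EC80, or co-application. Efficacy expressed as % of maximal carbachol response.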

[2] = molecular target: T2, M3 muscarinic receptor (Homo sapiens, UniProt P20309); test: Functional mobilization of intracellular calcium (FLIPR), M3-CHO cells; conditions: for M3 Activity: M3-CHO cells, calcium mobilization (FLIPR)
T2 construct: expressed in transfected cells; host or cells: CHO (M3-CHO)
T2 sequence (P20309 whole entry): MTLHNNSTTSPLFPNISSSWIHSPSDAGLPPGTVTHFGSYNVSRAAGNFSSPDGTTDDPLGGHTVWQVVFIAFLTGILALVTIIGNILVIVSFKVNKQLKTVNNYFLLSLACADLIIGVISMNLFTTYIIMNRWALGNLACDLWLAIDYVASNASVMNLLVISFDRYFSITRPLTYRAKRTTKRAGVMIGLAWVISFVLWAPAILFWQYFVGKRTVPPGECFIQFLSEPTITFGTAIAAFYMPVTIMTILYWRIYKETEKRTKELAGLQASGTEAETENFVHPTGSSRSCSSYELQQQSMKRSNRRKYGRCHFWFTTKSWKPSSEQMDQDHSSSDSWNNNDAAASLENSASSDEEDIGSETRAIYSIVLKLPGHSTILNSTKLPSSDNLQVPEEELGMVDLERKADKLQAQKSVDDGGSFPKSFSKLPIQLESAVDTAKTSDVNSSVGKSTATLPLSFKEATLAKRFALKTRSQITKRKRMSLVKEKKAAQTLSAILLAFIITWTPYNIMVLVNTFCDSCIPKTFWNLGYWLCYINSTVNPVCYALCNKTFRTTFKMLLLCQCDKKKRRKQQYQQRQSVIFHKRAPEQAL
How it was run: as §1

[3] = molecular target: T3, M4 muscarinic receptor (Homo sapiens, UniProt P08173); test: Functional mobilization of intracellular calcium (FLIPR), M4-CHO cells; conditions: for M4 Activity: M4-CHO cells, calcium mobilization (FLIPR)
T3 construct: expressed in transfected cells; host or cells: CHO (M4-CHO)
T3 sequence (P08173 1-479): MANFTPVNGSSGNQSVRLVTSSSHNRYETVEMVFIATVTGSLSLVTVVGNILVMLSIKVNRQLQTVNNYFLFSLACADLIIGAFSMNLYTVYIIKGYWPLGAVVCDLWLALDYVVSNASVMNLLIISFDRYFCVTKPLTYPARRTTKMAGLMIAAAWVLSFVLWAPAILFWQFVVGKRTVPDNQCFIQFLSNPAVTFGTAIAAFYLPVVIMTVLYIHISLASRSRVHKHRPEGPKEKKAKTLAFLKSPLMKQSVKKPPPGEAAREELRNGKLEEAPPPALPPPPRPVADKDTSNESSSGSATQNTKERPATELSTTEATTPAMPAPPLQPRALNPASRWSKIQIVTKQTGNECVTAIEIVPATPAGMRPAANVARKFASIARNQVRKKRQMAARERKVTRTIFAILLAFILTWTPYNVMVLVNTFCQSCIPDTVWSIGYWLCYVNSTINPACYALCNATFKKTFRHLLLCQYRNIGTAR
How it was run: as §1

[4] = molecular target: T4, M1 muscarinic receptor (Homo sapiens, UniProt P11229); test: Functional mobilization of intracellular calcium (FLIPR), M1-CHO cells; conditions: for M1 Activity: M1-CHO cells, calcium mobilization (FLIPR)
T4 construct: expressed in transfected cells; host or cells: CHO (M1-CHO)
T4 sequence (P11229 1-460): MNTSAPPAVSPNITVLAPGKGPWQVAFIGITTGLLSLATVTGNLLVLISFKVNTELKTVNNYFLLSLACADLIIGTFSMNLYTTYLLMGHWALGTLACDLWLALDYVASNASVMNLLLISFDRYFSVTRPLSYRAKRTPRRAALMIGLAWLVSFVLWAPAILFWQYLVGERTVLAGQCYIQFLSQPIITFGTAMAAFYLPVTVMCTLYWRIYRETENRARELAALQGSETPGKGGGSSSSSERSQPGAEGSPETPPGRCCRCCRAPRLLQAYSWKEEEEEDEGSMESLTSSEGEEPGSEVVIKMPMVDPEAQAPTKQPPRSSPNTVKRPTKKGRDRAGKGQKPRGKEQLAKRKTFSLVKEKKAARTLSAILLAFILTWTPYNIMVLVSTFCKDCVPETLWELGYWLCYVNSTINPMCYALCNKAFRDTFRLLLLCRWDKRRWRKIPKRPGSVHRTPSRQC
How it was run: as §1

[5] = 100% efficacy is the maximum response obtained with the Carbachol control

SMILES	Emax [1, 5]	M2 Activity [1]	Emax [2, 5]	M3 Activity [2]	Emax [3, 5]	M4 Activity [3]	Emax [4, 5]	M1 Activity [4]	M2 Efficacy [1, 5]	M3 Efficacy [2, 5]	M4 Efficacy [3, 5]	M1 Efficacy [4, 5]
COc1ccc(-c2ccc(OC)c(C3CCN([C@@H]4C[C@H]5CC[C@H]4C5)CC3)c2)cc1 [Compound 393]	< 25%	+ (activity was measured to be greater than 5.0 μM)	< 25%	+ (activity was measured to be greater than 5.0 μM)	25 to 100%	+ (activity was measured to be greater than 5.0 μM)	< 25%	+ (activity was measured to be greater than 5.0 μM)	–	–	–	–
COc1ccc(Cl)cc1C1(O)CCN(C[C@H]2C[C@H]3C=C[C@H]2C3)CC1 [Compound 394]	25 to 100%	+ (activity was measured to be greater than 5.0 μM)	< 25%	+ (activity was measured to be greater than 5.0 μM)	25 to 100%	+++ (activity was measured to be less than 1.0 μM)	< 25%	+ (activity was measured to be greater than 5.0 μM)	–	–	–	–
Clc1cccc(-c2ccccc2C2CCN([C@H]3C[C@H]4CC[C@H]3C4)CC2)c1 [Compound 395]	< 25%	+ (activity was measured to be greater than 5.0 μM)	< 25%	+ (activity was measured to be greater than 5.0 μM)	25 to 100%	+ (activity was measured to be greater than 5.0 μM)	< 25%	+ (activity was measured to be greater than 5.0 μM)	–	–	–	–
COc1ccc(Cl)cc1C1CCN(C2CCC(=NOCc3ccccc3)CC2)CC1 (centres unmarked) [Compound 396]	–	+ (activity was measured to be greater than 5.0 μM)	–	+ (activity was measured to be greater than 5.0 μM)	–	+++ (activity was measured to be less than 1.0 μM)	–	+ (activity was measured to be greater than 5.0 μM)	+ (efficacy was calculated to be less than 25%)	+ (efficacy was calculated to be less than 25%)	++ (efficacy was calculated to be from 100% to 25%)	++ (efficacy was calculated to be from 100% to 25%)
COc1ccccc1C1CCN(C2CCCC(C)C2)CC1 (centres unmarked) [Compound 398]	< 25%	+ (activity was measured to be greater than 5.0 μM)	< 25%	+ (activity was measured to be greater than 5.0 μM)	25 to 100%	+++ (activity was measured to be less than 1.0 μM)	25 to 100%	+ (activity was measured to be greater than 5.0 μM)	–	–	–	–
COc1ccc(-c2ccc(CC#N)cc2)cc1C1CCN(C2CCCCC2)CC1 [Compound 399]	< 25%	+ (activity was measured to be greater than 5.0 μM)	< 25%	+ (activity was measured to be greater than 5.0 μM)	25 to 100%	++ (activity was measured to be from 1.0 μM to 5.0 μM)	< 25%	+ (activity was measured to be greater than 5.0 μM)	–	–	–	–
COc1ccc(-c2ccc(NC(C)=O)cc2)cc1C1CCN([C@H]2C[C@H]3CC[C@H]2C3)CC1 [Compound 400]	< 25%	+ (activity was measured to be greater than 5.0 μM)	< 25%	+ (activity was measured to be greater than 5.0 μM)	< 25%	+ (activity was measured to be greater than 5.0 μM)	< 25%	+ (activity was measured to be greater than 5.0 μM)	–	–	–	–
